Data published in patent US20170035664A1, “FLAVOR-OPTIMIZED IONIZED WATER COMPOSITIONS” (priority 2015, published 2017).
Where two headings read alike, the source gives them in different places.

Tests used:
[1] = Evaluation of calcium: bioavailability; details: form of calcium
[2] = Solubility of components in the exemplary compositions; format: physicochemical; details: in the current exemplary compositions
Procedure: Additional experiments provided a greater understanding of the ability to achieve certain functional goals for the final composition. Evaluation of phosphorus, calcium, vitamin D, fluoride, xylitol, and the pH of the alkaline ionized water was performed as described below.

[3] = cited from earlier work

Compound	bioavailability [1]	solubility [2]	dosage causing diarrhea ([3]; adults)	dosage causing diarrhea ([3]; children)	tolerated amount ([3]; most adults)
CC(O)C(=O)[O-].O=C([O-])[C@H](O)[C@@H](O)[C@H](O)[C@H](O)CO.[Ca+2] [Calcium lactate gluconate]	bioavailable	very soluble			
OC[C@@H](O)[C@H](O)[C@@H](O)CO [xylitol]			100 g/day	45 g/day	40 g/day
vitamin D		not soluble			
